Experimental findings from patent publication US12686687B2, “Compounds and uses thereof” (Foghorn Therapeutics Inc., priority 2019, dated 2026) are described below.

SMILES strings stand for the structures.

The first test has as its target T1, Nanoluciferase-BRD9 fusion protein (3×FLAG-NLuc-BRD9) in SYO-1 cells (Homo sapiens, UniProt Q9H8M2).
T1 construct: expressed in transfected cells; host or cells: SYO-1
T1 sequence (Q9H8M2 1-597): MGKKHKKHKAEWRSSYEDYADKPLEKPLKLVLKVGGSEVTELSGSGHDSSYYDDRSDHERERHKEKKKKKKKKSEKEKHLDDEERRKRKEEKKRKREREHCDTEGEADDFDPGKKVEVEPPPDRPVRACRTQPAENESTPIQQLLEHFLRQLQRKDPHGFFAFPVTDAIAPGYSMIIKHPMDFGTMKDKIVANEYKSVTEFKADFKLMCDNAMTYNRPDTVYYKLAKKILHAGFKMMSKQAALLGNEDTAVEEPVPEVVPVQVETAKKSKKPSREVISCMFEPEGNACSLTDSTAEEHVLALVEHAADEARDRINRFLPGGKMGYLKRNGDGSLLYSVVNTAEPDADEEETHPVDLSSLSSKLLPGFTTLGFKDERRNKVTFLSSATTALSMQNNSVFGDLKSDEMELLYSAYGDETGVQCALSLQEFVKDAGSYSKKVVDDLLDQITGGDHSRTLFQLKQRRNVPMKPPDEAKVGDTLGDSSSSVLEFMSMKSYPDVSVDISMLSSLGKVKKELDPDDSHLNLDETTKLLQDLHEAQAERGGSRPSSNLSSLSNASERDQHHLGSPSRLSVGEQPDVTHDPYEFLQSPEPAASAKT
Kind of test: SYO1 BRD9 NanoLuc degradation assay. It is filed as cell-based. As to conditions: Table 6B; SYO-1 cells expressing 3×FLAG-NLuc-BRD9, 6 hours incubation, 1 μM top dose; read-out: SYO1 BRD9-NanoLuc degradation IC50. Here is the method: Procedure: A stable SYO-1 cell line expressing 3×FLAG-NLuc-BRD9 was generated. On day 0 cells were seeded in 30 μL media into each well of 384-well cell culture plates. The seeding density was 8000 cells/well. On day 1, cells were treated with 30 nL DMSO or 30 nL of 3-fold serially DMSO-diluted compounds (10 points in duplicates with 1 μM as final top dose). Subsequently plates were incubated for 6 hours in a standard tissue culture incubator and equilibrated at room temperature for 15 minutes. Nanoluciferase activity was measured by adding 15 μL of freshly prepared Nano-Glo Luciferase Assay Reagent (Promega N1130), shaking the plates for 10 minutes and reading the bioluminescence using an EnVision reader. • Results: The Inhibition % was calculated using the following formula: % Inhibition=100×(LumHC−LumSample)/(LumHC−LumLC). DMSO treated cells are employed as High Control (HC) and 1 μM of a known BRD9 degrader standard treated cells are employed as Low Control (LC).
`COc1cc(-c2cn(C)c(=O)c3cc(C(=O)NC4CCN(C(=O)CN5CCC6(CC5)CN(c5ccc7c(c5)C(=O)N(C5CCC(=O)NC5=O)C7=O)C6)CC4(F)F)sc23)cc(OC)c1CN(C)C` (stereo not drawn) [Compound D46]: the DC50 is < 10 nM.

Regarding `COc1cc(-c2cn(C)c(=O)c3cc(C(=O)NCC4CC5(CCN(CCN6CCN(c7ccc8c(c7)C(=O)N(C7CCC(=O)NC7=O)C8=O)CC6)CC5)CO4)sc23)cc(OC)c1CN(C)C` (stereo not drawn) [Compound D50], the DC50 is < 10 nM.

As for `COc1cc(-c2cn(C)c(=O)c3cc(C(=O)NCC4CC5(C4)CN(CCCN4CCN(c6ccc7c(c6)C(=O)N(C6CCC(=O)NC6=O)C7=O)CC4)C5)sc23)cc(OC)c1CN(C)C` (stereo not drawn) [Compound D52], the DC50 is > 10 nM.

In the case of `COc1cc(-c2cn(C)c(=O)c3cc(C(=O)NCC4CC5(CCN(C(=O)CCN6CCN(c7ccc8c(c7)C(=O)N(C7CCC(=O)NC7=O)C8=O)CC6)CC5)C4)sc23)cc(OC)c1CN(C)C` (stereo not drawn) [Compound D35], the DC50 is < 10 nM.

Consider `COc1cc(-c2cn(C)c(=O)c3cc(C(=O)NC4CCN(CCCCN5CCN(c6ccc7c(c6)C(=O)N(C6CCC(=O)NC6=O)C7=O)CC5)CC4)sc23)cc(OC)c1CN(C)C` (stereo not drawn) [Compound D86], for which the DC50 is < 10 nM.

`COc1cc(-c2cn(C)c(=O)c3cc(C(=O)NC4CC5(CCN(C(=O)CCN6CCN(c7ccc8c(c7)C(=O)N(C7CCC(=O)NC7=O)C8=O)CC6)C5)C4)sc23)cc(OC)c1CN(C)C` (stereo not drawn) [Compound D72]: the DC50 is < 10 nM.

For `Cn1cc(-c2cccc(C(F)(F)F)c2)c2sc(C(=N)NC3CCS(=O)(=O)N(CC(=O)NCCCCCCCCNc4cccc5c4C(=O)N(C4CCC(=O)NC4=O)C5=O)C3)cc2c1=O` (stereo not drawn) [Compound D31], the DC50 is > 10 nM.

With `COc1cc(-c2cn(C)c(=O)c3cc(C(=O)NC4CCN(CCCN5CCN(c6ccc7c(c6)C(=O)N(C6CCC(=O)NC6=O)C7=O)CC5)CC4(F)F)sc23)cc(OC)c1CN(C)C` (stereo not drawn) [Compound D60], the DC50 is < 10 nM.

As to `COc1cc(-c2cn(C)c(=O)c3cc(C(=O)NC4CCN(C)CC4(F)F)sc23)cc(OC)c1CN1CCC(CCN2CCN(c3ccc4c(c3)C(=O)N(C3CCC(=O)NC3=O)C4=O)CC2)CC1` (stereo not drawn) [Compound D26], the DC50 was < 10 nM.

Still in this test, the particulars now being: Table 6C; SYO-1 cells expressing 3×FLAG-NLuc-BRD9, 6 hours incubation, 1 μM top dose; read-out: SYO1 BRD9-NanoLuc degradation IC50.
On to `COc1cc(-c2cn(C)c(=O)c3cc(C(=O)N[C@H]4CCN(C5CCN(c6ccc7c(c6)C(=O)N([C@H]6CCC(=O)NC6=O)C7)CC5)CC4(F)F)sc23)cc(OC)c1CN(C)C` [Compound D141], for which the DC50 is < 10 nM.

Consider `COc1cc(-c2cn(C)c(=O)c3cc(C)sc23)cc(OC)c1CN1CCC(CN2CCC3(CC2)CN(c2ccc4c(c2)C(=O)N(C2CCC(=O)NC2=O)C4=O)C3)CC1` (stereo not drawn) [Compound D184], for which the DC50 was < 10 nM.

With `COc1cc(-c2cn(C)c(=O)c3ccsc23)cc(OC)c1C1CCN(c2ccc3c(c2)C(=O)N(C2CCC(=O)NC2=O)C3)C1` (stereo not drawn) [Compound D122], the DC50 is < 10 nM.

Take `COc1cc(-c2cn(C)c(=O)c3sncc23)cc(OC)c1CN1CCC2(CC1)CN(c1ccc3c(c1)C(=O)N(C1CCC(=O)NC1=O)C3)C2` (stereo not drawn) [Compound D203]: the DC50 was < 10 nM.

For the compound `COc1cc(-c2cn(C)c(=O)c3cc(C(=O)N[C@H]4CCN(C5CCN(c6ccc7c(c6)C(=O)N(C6CCC(=O)NC6=O)C7)CC5)CC4(F)F)sc23)cc(OC)c1CN(C)C` (stereo partly drawn) [Compound D167], the DC50 is < 10 nM.

As for `COc1cc(-c2cn(C)c(=O)c3cnsc23)cc(OC)c1CN1CC(Oc2ccc3c(c2)C(=O)N(C2CCC(=O)NC2=O)C3)C1` (stereo not drawn) [Compound D213], the DC50 is < 10 nM.

On to `COc1cc(-c2cn(C)c(=O)c3ccsc23)cc(OC)c1CN1CC(Oc2ccc3c(c2)C(=O)N(C2CCC(=O)NC2=O)C3=O)C1` (stereo not drawn) [Compound D169], for which the DC50 is < 10 nM.

For `COc1cc(-c2c(C)n(C)c(=O)c3ccsc23)cc(OC)c1CN1CCC2(CC1)CN(c1ccc3c(c1)C(=O)N(C1CCC(=O)NC1=O)C3)C2` (stereo not drawn) [Compound D158], the DC50 was < 10 nM.

For the compound `COc1cc(-c2cn(C)c(=O)c3ccsc23)cc(OC)c1CN1CCC2CCN(c3ccc4c(c3)C(=O)N(C3CCC(=O)NC3=O)C4)CC2C1` (stereo not drawn) [Compound D113], the DC50 is < 10 nM.

Regarding `COc1cc(-c2cn(C)c(=O)c3sccc23)cc(OC)c1CN1CCC(CN2CCC3(CC2)CC(Oc2ccc4c(c2)CN(C2CCC(=O)NC2=O)C4=O)C3)CC1` (stereo not drawn) [Compound D193], the DC50 was < 10 nM.

Consider `COc1cc(-c2cn(C)c(=O)c3cc(C(=O)NC4CCN(C5CCN(c6ccn7c(=O)n(C8CCC(=O)NC8=O)nc7c6)CC5)CC4(F)F)sc23)cc(OC)c1CN(C)C` (stereo not drawn) [Compound D179], for which the DC50 is < 10 nM.

For the compound `COc1cc(-c2cn(C)c(=O)c3ccsc23)cc(OC)c1CN1CCC2(CC1)CN(c1ccc3c(c1)C(=O)N(C1CCC(=O)NC1=O)C3)C2` (stereo not drawn) [Compound D186], the DC50 is < 10 nM.

In the case of `COc1cc(-c2cn(C)c(=O)c3ccsc23)cc(OC)c1CN1CC(C#Cc2ccc3c(c2)C(=O)N(C2CCC(=O)NC2=O)C3)C1` (stereo not drawn) [Compound D92], the DC50 is < 10 nM.

Consider `COc1cc(-c2cn(C)c(=O)c3cc(C(=O)N[C@H]4CCN(CCN5CCN(c6ccc7c(c6)C(=O)N(C6CCC(=O)NC6=O)C7)CC5)CC4(F)F)sc23)cc(OC)c1CN(C)C` (stereo partly drawn) [Compound D112], for which the DC50 is < 10 nM.

Consider `COc1cc(-c2cn(C)c(=O)c3ccsc23)cc(OC)c1CN1CCN(c2ccc3c(c2)C(=O)N(C2CCC(=O)NC2=O)C3)CC12CCC2` (stereo not drawn) [Compound D176], for which the DC50 was < 10 nM.

Take `COc1cc(-c2cn(C)c(=O)c3ccsc23)cc(OC)c1CN1[C@H](C)CN(c2ccc3c(c2)C(=O)N(C2CCC(=O)NC2=O)C3)C[C@H]1C` (stereo partly drawn) [Compound D144]: the DC50 was < 10 nM.

With `COc1cc(OC)cc(-c2cn(C)c(=O)c3cc(C(=O)NC4CCN(c5ccc6c(c5)C(=O)N(C5CCC(=O)NC5=O)C6)CC4)oc23)c1` (stereo not drawn) [Compound D219], the DC50 was < 10 nM.

For the compound `COc1cc(-c2cn(C)c(=O)c3cc(C(=O)NC4CN(C5CCN(c6ccc7c(c6)C(=O)N(C6CCC(=O)NC6=O)C7)CC5)CC4(F)F)sc23)cc(OC)c1CN(C)C` (stereo not drawn) [Compound D182], the DC50 was < 10 nM.

Turning to `COc1cc(-c2cn(C)c(=O)c3ncsc23)cc(OC)c1CN1CCC2(CC1)CN(c1ccc3c(c1)C(=O)N(C1CCC(=O)NC1=O)C3)C2` (stereo not drawn) [Compound D204], the DC50 is > 100 nM.

Consider `COc1cc(-c2cn(C)c(=O)c3cc(C(=O)NC4CCN(c5ccc6c(c5)C(=O)N(C5CCC(=O)NC5=O)C6)CC4)sc23)cc(OC)c1CN(C)C` (stereo not drawn) [Compound D146], for which the DC50 was < 10 nM.

Take `COc1cc(-c2cn(C)c(=O)c3ccsc23)cc(OC)c1CN1CC(Oc2ccc3c(c2)C(=O)N(C2CCC(=O)NC2=O)C3)C1` (stereo not drawn) [Compound D168]: the DC50 was < 10 nM.

For the compound `COc1cc(-c2cn(C)c(=O)c3cnsc23)cc(OC)c1CN1CCC2(CC1)CN(c1ccc3c(c1)C(=O)N(C1CCC(=O)NC1=O)C3=O)C2` (stereo not drawn) [Compound D209], the DC50 is < 10 nM.

`Cn1cc(-c2cccc(C(F)(F)F)c2)c2sc(C(=O)NC3CC4(CCN(c5ccc6c(c5)C(=O)N(C5CCC(=O)NC5=O)C6)CC4)C3)cc2c1=O` (stereo not drawn) [Compound D117]: the DC50 is < 10 nM.

`COc1cc2c(=O)n(C)cc(-c3cc(OC)c(CN4CCC(CN5CCC6(CC5)CN(c5ccc7c(c5)C(=O)N(C5CCC(=O)NC5=O)C7)C6)CC4)c(OC)c3)c2s1` (stereo not drawn) [Compound D100]: the DC50 was < 10 nM.

Turning to `COc1cc(-c2cn(C)c(=O)c3ncsc23)cc(OC)c1CN1CC(Oc2ccc3c(c2)CN(C2CCC(=O)NC2=O)C3=O)C1` (stereo not drawn) [Compound D206], the DC50 was < 10 nM.

Regarding `COc1cc(-c2cn(C)c(=O)c3cc(C(=O)N[C@@H]4CCN(CCN5CCN(c6ccc7c(c6)C(=O)N(C6CCC(=O)NC6=O)C7)CC5)CC4(F)F)sc23)cc(OC)c1CN(C)C` (stereo partly drawn) [Compound D166], the DC50 was < 10 nM.

In the case of `COc1cc(-c2cn(C)c(=O)c3cscc23)cc(OC)c1CN1CCC2(CC1)CN(c1ccc3c(c1)C(=O)N(C1CCC(=O)NC1=O)C3=O)C2` (stereo not drawn) [Compound D208], the DC50 is < 10 nM.

`COc1cc(-c2cn(C)c(=O)c3cc(C(=O)N[C@@H]4CCN(C5CCN(c6ccc7c(c6)C(=O)N([C@@H]6CCC(=O)NC6=O)C7)CC5)CC4(F)F)sc23)cc(OC)c1CN(C)C` [Compound D134]: the DC50 is < 10 nM.

Regarding `COc1cc(-c2cn(C)c(=O)c3ccsc23)cc(OC)c1C1CCN(c2ccc3c(c2)C(=O)N(C2CCC(=O)NC2=O)C3)CC1` (stereo not drawn) [Compound D123], the DC50 is < 10 nM.

In the case of `COc1cc(-c2c(C)n(C)c(=O)c3ccsc23)cc(OC)c1CN1CCC(CN2CCC3(CC2)CN(c2ccc4c(c2)C(=O)N(C2CCC(=O)NC2=O)C4)C3)CC1` (stereo not drawn) [Compound D153], the DC50 is < 10 nM.
